Experimental data published in patent US20050003383A1, “Linoleate isomerase” (Arkion Life Sciences LLC d/b/a Bio-Technical Resources …, priority 1999, published 2005).

Each compound was assayed against P. acnes ATCC 6919 linoleate isomerase (Cutibacterium acnes, UniProt Q6A8X5) (assay: not given). Conditions: not given.
Assay type: biochemical, Propionibacterium acnes
Method: Formation of CLA was determined by measuring the absorbence at 234 nm. […] Generally, the isomerase was assayed using an endpoint assay after 30 to 60 minutes incubation at room temperature. FIG. 18 (time course assay at different linoleic acid levels) and FIG. 19 (end point assay at different linoleic acid levels) show the effect of increasing substrate concentration on formation of […].

P. acnes ATCC 6919 linoleate isomerase, sequence (Q6A8X5 entry or part of it): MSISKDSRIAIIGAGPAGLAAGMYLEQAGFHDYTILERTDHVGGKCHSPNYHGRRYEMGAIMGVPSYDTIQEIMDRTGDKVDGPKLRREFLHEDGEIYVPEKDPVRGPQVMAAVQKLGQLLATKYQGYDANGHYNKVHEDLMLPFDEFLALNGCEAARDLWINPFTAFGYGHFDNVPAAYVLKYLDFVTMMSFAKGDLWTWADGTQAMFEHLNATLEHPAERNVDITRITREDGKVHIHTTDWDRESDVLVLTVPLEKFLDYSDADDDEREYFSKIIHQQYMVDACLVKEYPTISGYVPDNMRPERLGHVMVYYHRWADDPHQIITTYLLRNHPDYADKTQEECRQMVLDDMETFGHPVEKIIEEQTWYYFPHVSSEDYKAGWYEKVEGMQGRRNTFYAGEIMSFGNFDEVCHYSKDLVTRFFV

SMILES	effect of possible cofactors on isomerase activity
N[C@@H](CCC(=O)N[C@@H](CS)C(=O)NCC(=O)O)C(=O)O [glutathione]	No significant effect

Same assay, conditions: 60 minute assays

SMILES	effect of possible cofactors on isomerase activity
Cc1cc2nc3c(=O)[nH]c(=O)nc-3n(C[C@H](O)[C@H](O)[C@H](O)COP(=O)(O)OP(=O)(O)OC[C@H]3O[C@@H](n4cnc5c(N)ncnc54)[C@H](O)[C@@H]3O)c2cc1C [FAD]	No significant effect
Nc1ncnc2c1ncn2[C@@H]1O[C@H](COP(=O)(O)OP(=O)(O)O)[C@@H](O)[C@H]1O [ADP]	No significant effect
Cc1cc2nc3c(=O)[nH]c(=O)nc-3n(C[C@H](O)[C@H](O)[C@H](O)COP(=O)(O)O)c2cc1C [FMN]	No significant effect
Nc1ncnc2c1ncn2[C@@H]1O[C@H](COP(=O)(O)OP(=O)(O)OP(=O)(O)O)[C@@H](O)[C@H]1O [ATP]	No significant effect
NC(=O)C1=CN([C@@H]2O[C@H](COP(=O)(O)OP(=O)(O)OC[C@H]3O[C@@H](n4cnc5c(N)ncnc54)[C@H](O)[C@@H]3O)[C@@H](O)[C@H]2O)C=CC1 [NADH]	No significant effect
[Ca] [Calcium]	no effect
[Mg] [magnesium]	no effect
NC(=O)C1=CN([C@@H]2O[C@H](COP(=O)(O)OP(=O)(O)OC[C@H]3O[C@@H](n4cnc5c(N)ncnc54)[C@H](OP(=O)(O)O)[C@@H]3O)[C@@H](O)[C@H]2O)C=CC1 [NADPH]	No significant effect
NC(=O)c1ccc[n+]([C@@H]2O[C@H](COP(=O)([O-])OP(=O)(O)OC[C@H]3O[C@@H](n4cnc5c(N)ncnc54)[C@H](OP(=O)(O)O)[C@@H]3O)[C@@H](O)[C@H]2O)c1 [NADP]	No significant effect
NC(=O)c1ccc[n+]([C@@H]2O[C@H](COP(=O)([O-])OP(=O)(O)OC[C@H]3O[C@@H](n4cnc5c(N)ncnc54)[C@H](O)[C@@H]3O)[C@@H](O)[C@H]2O)c1 [NAD]	No significant effect

Same assay, conditions: EDTA 5 mM; 1,10-phenanthroline 1 mM; p-chloromercuribenzoate 5 μM; N-ethylmaleimide 100 μM

SMILES	inhibition of isomerase activity
O=C(O)c1cc[c]([Hg][Cl])cc1 [p-chloromercuribenzoate]	not inhibited
CCN1C(=O)C=CC1=O [N-ethylmaleimide]	not inhibited

What follows are compounds tested on linoleate isomerase from Clostridium sporogenes (assay: C. sporogenes linoleate isomerase kinetic assay, absorbence at 234 nm, partially purified enzyme). Conditions: not given.
Assay type: biochemical
Method: In this experiment, all kinetic experiments were performed in a quartz cuvette (1-cm light-path with a magnetic stirrer) at room temperature using a HP 8452A diode array spectrophotometer. The cuvette was filled with 1 ml of incubation buffer containing 50 μg protein, 0.1 M potassium phosphate, pH7.5, 10 mM NaCl and 10% 1,2-propane diol. The isomerization was initiated by adding a small aliquot (1-2 μl) of freshly diluted substrate-stock (˜[…] linoleic acid) in 1,2-propane diol at 50 seconds. The increase in absorbence at 234 nm was monitored and recorded. […] The amount of product formed was calculated based on a molar extinction coefficient of 24,000.

SMILES	serves as substrate
CCCCC/C=C\C/C=C\CCCCCCCC(=O)OC [methyl linoleate, (cis, cis)-linoleic acid methyl ester]	do not serve as substrates
CCCCC/C=C\C/C=C\CCCCCCCCO [linoleyl alcohol, (cis, cis)-9, 12-octadecadien-1-ol]	do not serve as substrates

Same assay, conditions: compound added at 35 μM; substrate LA 35 μM; pH 7.5; LA alone = 100%

SMILES	RELATIVE ACTIVITY % [%]
CCCCC/C=C/C/C=C/CCCCCCCC(=O)O [linolelaidic acid, (trans, trans)-9, 12-octadecadienoic acid]	19
CCCCCC/C=C\CCCCCCCC(=O)O [palmitoleic acid, (cis)-9 hexadecenoic acid]	27
CCCCC/C=C\C/C=C\CCCCCCCCCC(=O)O [(cis, cis)-11, 14 eicosadienoic acid]	0
CCCCCCCCCCCCCCCC(=O)O [palmitic acid, hexadecanoic acid]	93
CCCCC/C=C\C/C=C\CCCCCCCC(=O)OC [methyl linoleate, (cis, cis)-linoleic acid methyl ester]	69
CCCCC/C=C\C/C=C\CCCCCCCCO [linoleyl alcohol, (cis, cis)-9, 12-octadecadien-1-ol]	81
CCCCCCCCCCCCCCCCCC(=O)O [stearic acid, octadecanoic acid]	107

Same assay, conditions: compound as substrate

SMILES	Vmax [nmole/min/mg protein]
CCCCC/C=C\C/C=C\C/C=C\CCCCC(=O)O [γ-linolenic acid, (cis, cis, cis)-6,9, 12-octadecatrienoic acid]	236
CC/C=C\C/C=C\C/C=C\C/C=C\CCCCC(=O)O [stearidonic acid, (cis, cis, cis, cis)-6, 9, 12, 15 octadecatetraenoic acid]	204

Same assay, conditions: compound as substrate at 10 PPM; activity with linoleic acid set as 100%

SMILES	RELATIVE ACTIVITY % [%]
CCCCC/C=C/C/C=C/CCCCCCCC(=O)O [linolelaidic acid, (trans, trans)-9, 12-octadecadienoic acid]	0
CCCCCC/C=C\CCCCCCCC(=O)O [palmitoleic acid, (cis)-9 hexadecenoic acid]	0
CCCCCCCC/C=C\CCCCCCCCCCCC(=O)O [erucic acid, (cis)-13-docosaenoic acid]	0
CCCCC/C=C\C/C=C\CCCCCCCCCC(=O)OC [(cis, cis)-11, 14 eicosadienoic acid methyl ester]	0
CCCCC/C=C\C/C=C\CCCCCCCCCC(=O)O [(cis, cis)-11, 14 eicosadienoic acid]	20
CCCCC/C=C\C/C=C\CCCCCCCC(=O)OC [methyl linoleate, (cis, cis)-linoleic acid methyl ester]	0
CCCCC/C=C\C/C=C\C/C=C\CCCCC(=O)O [γ-linolenic acid, (cis, cis, cis)-6,9, 12-octadecatrienoic acid]	77
CCCCC/C=C\C/C=C\CCCCCCCCO [linoleyl alcohol, (cis, cis)-9, 12-octadecadien-1-ol]	0
CCCCC/C=C\C/C=C\CCCCCCCCCCCC(=O)O [(cis, cis)-13, 16 docosadienoic acid]	0
CC/C=C\C/C=C\C/C=C\C/C=C\CCCCC(=O)O [stearidonic acid, (cis, cis, cis, cis)-6, 9, 12, 15 octadecatetraenoic acid]	60
CCCCC/C=C\C/C=C\C/C=C\CCCCCCC(=O)O [(cis, cis, cis)-8, 11, 14 eicosatrienoic acid]	0
CCCCCCCC[C@H]1O[C@H]1CCCCCCCC(=O)O (relative stereo) [epoxystearic acid, (cis)-9:10-epoxyoctadecanoic]	0

Same assay, conditions: compound as substrate; read-out: Km

SMILES	Km [µM]
CCCCC/C=C\C/C=C\C/C=C\CCCCC(=O)O [γ-linolenic acid, (cis, cis, cis)-6,9, 12-octadecatrienoic acid]	23.8
CC/C=C\C/C=C\C/C=C\C/C=C\CCCCC(=O)O [stearidonic acid, (cis, cis, cis, cis)-6, 9, 12, 15 octadecatetraenoic acid]	18.9

Same assay, conditions: fatty acids and derivatives fixed at 35 μM

SMILES	effect on isomerase activity
CCCCC/C=C\C/C=C\CCCCCCCC(=O)OC [methyl linoleate, (cis, cis)-linoleic acid methyl ester]	inhibitors
CCCCC/C=C\C/C=C\CCCCCCCCO [linoleyl alcohol, (cis, cis)-9, 12-octadecadien-1-ol]	inhibitors

Same assay, conditions: inhibition of linoleic acid isomerization; calculated from secondary plots; read-out: inhibition constants (Ki)

SMILES	Ki [µM]
CCCCCC/C=C\CCCCCCCC(=O)O [palmitoleic acid, (cis)-9 hexadecenoic acid]	33.1

Same assay, conditions: isomerization of (cis, cis, cis, cis)-6, 9, 12, 15 octadecatetraenoic acid 20 PPM; cofactor 50 μM, DTT 1 mM

SMILES	Activity [nmol/min]
Nc1ncnc2c1ncn2[C@@H]1O[C@H](COP(=O)(O)OP(=O)(O)O)[C@@H](O)[C@H]1O [ADP]	5.7
Nc1ncnc2c1ncn2[C@@H]1O[C@H](COP(=O)(O)OP(=O)(O)OP(=O)(O)O)[C@@H](O)[C@H]1O [ATP]	6.1
NC(=O)C1=CN([C@@H]2O[C@H](COP(=O)(O)OP(=O)(O)OC[C@H]3O[C@@H](n4cnc5c(N)ncnc54)[C@H](O)[C@@H]3O)[C@@H](O)[C@H]2O)C=CC1 [NADH]	6.4
NC(=O)C1=CN([C@@H]2O[C@H](COP(=O)(O)OP(=O)(O)OC[C@H]3O[C@@H](n4cnc5c(N)ncnc54)[C@H](OP(=O)(O)O)[C@@H]3O)[C@@H](O)[C@H]2O)C=CC1 [NADPH]	6.3
CC(C)(COP(=O)(O)OP(=O)(O)OC[C@H]1O[C@@H](n2cnc3c(N)ncnc32)[C@H](O)[C@@H]1OP(=O)(O)O)[C@@H](O)C(=O)NCCC(=O)NCCS [CoA]	6.5
O[C@H](CS)[C@H](O)CS (racemic) [DTT, dithiothreitol]	5.9
NC(=O)c1ccc[n+]([C@@H]2O[C@H](COP(=O)([O-])OP(=O)(O)OC[C@H]3O[C@@H](n4cnc5c(N)ncnc54)[C@H](O)[C@@H]3O)[C@@H](O)[C@H]2O)c1 [NAD]	5.6

Same assay, conditions: isomerization of (cis, cis, cis, cis)-6, 9, 12, 15 octadecatetraenoic acid 20 PPM; cofactor 50 μM, DTT 1 mM; no cofactor = 100

SMILES	Activity (%)
Nc1ncnc2c1ncn2[C@@H]1O[C@H](COP(=O)(O)OP(=O)(O)O)[C@@H](O)[C@H]1O [ADP]	92
Nc1ncnc2c1ncn2[C@@H]1O[C@H](COP(=O)(O)OP(=O)(O)OP(=O)(O)O)[C@@H](O)[C@H]1O [ATP]	98
NC(=O)C1=CN([C@@H]2O[C@H](COP(=O)(O)OP(=O)(O)OC[C@H]3O[C@@H](n4cnc5c(N)ncnc54)[C@H](O)[C@@H]3O)[C@@H](O)[C@H]2O)C=CC1 [NADH]	103
NC(=O)C1=CN([C@@H]2O[C@H](COP(=O)(O)OP(=O)(O)OC[C@H]3O[C@@H](n4cnc5c(N)ncnc54)[C@H](OP(=O)(O)O)[C@@H]3O)[C@@H](O)[C@H]2O)C=CC1 [NADPH]	102
CC(C)(COP(=O)(O)OP(=O)(O)OC[C@H]1O[C@@H](n2cnc3c(N)ncnc32)[C@H](O)[C@@H]1OP(=O)(O)O)[C@@H](O)C(=O)NCCC(=O)NCCS [CoA]	105
O[C@H](CS)[C@H](O)CS (racemic) [DTT, dithiothreitol]	95
NC(=O)c1ccc[n+]([C@@H]2O[C@H](COP(=O)([O-])OP(=O)(O)OC[C@H]3O[C@@H](n4cnc5c(N)ncnc54)[C@H](O)[C@@H]3O)[C@@H](O)[C@H]2O)c1 [NAD]	90

Same assay, conditions: isomerization of linoleic acid 10 PPM; cofactor 50 μM, DTT 1 mM

SMILES	Activity [nmol/min]
Nc1ncnc2c1ncn2[C@@H]1O[C@H](COP(=O)(O)OP(=O)(O)O)[C@@H](O)[C@H]1O [ADP]	11.1 ± 1.7
Nc1ncnc2c1ncn2[C@@H]1O[C@H](COP(=O)(O)OP(=O)(O)OP(=O)(O)O)[C@@H](O)[C@H]1O [ATP]	11.1 ± 1.4
NC(=O)C1=CN([C@@H]2O[C@H](COP(=O)(O)OP(=O)(O)OC[C@H]3O[C@@H](n4cnc5c(N)ncnc54)[C@H](OP(=O)(O)O)[C@@H]3O)[C@@H](O)[C@H]2O)C=CC1 [NADPH]	11.1 ± 1.5
O[C@H](CS)[C@H](O)CS (racemic) [DTT, dithiothreitol]	12.8 ± 3.8
NC(=O)c1ccc[n+]([C@@H]2O[C@H](COP(=O)([O-])OP(=O)(O)OC[C@H]3O[C@@H](n4cnc5c(N)ncnc54)[C@H](O)[C@@H]3O)[C@@H](O)[C@H]2O)c1 [NAD]	10.8 ± 1.3

Same assay, conditions: isomerization of linoleic acid 10 PPM; cofactor 50 μM, DTT 1 mM; no cofactor = 100

SMILES	Activity (%)
Nc1ncnc2c1ncn2[C@@H]1O[C@H](COP(=O)(O)OP(=O)(O)O)[C@@H](O)[C@H]1O [ADP]	105
Nc1ncnc2c1ncn2[C@@H]1O[C@H](COP(=O)(O)OP(=O)(O)OP(=O)(O)O)[C@@H](O)[C@H]1O [ATP]	105
NC(=O)C1=CN([C@@H]2O[C@H](COP(=O)(O)OP(=O)(O)OC[C@H]3O[C@@H](n4cnc5c(N)ncnc54)[C@H](O)[C@@H]3O)[C@@H](O)[C@H]2O)C=CC1 [NADH]	99
NC(=O)C1=CN([C@@H]2O[C@H](COP(=O)(O)OP(=O)(O)OC[C@H]3O[C@@H](n4cnc5c(N)ncnc54)[C@H](OP(=O)(O)O)[C@@H]3O)[C@@H](O)[C@H]2O)C=CC1 [NADPH]	105
O[C@H](CS)[C@H](O)CS (racemic) [DTT, dithiothreitol]	121
NC(=O)c1ccc[n+]([C@@H]2O[C@H](COP(=O)([O-])OP(=O)(O)OC[C@H]3O[C@@H](n4cnc5c(N)ncnc54)[C@H](O)[C@@H]3O)[C@@H](O)[C@H]2O)c1 [NAD]	102

Same assay, conditions: substrate concentration dependency of isomerization

SMILES	substrate has an inhibitory effect at concentrations above [µM]
CCCCC/C=C\C/C=C\C/C=C\CCCCC(=O)O [γ-linolenic acid, (cis, cis, cis)-6,9, 12-octadecatrienoic acid]	> 15
CC/C=C\C/C=C\C/C=C\C/C=C\CCCCC(=O)O [stearidonic acid, (cis, cis, cis, cis)-6, 9, 12, 15 octadecatetraenoic acid]	> 120
